{"source": "patent US12068729B2", "about": "“Anti-factor XII/XIIa antibodies and uses thereof” (Regeneron Pharmaceuticals, Inc., priority 2018, dated 2024)", "key": {"[1]": {"tested_on": "Intrinsic and Common pathways of the coagulation cascade", "experiment": "Activated Partial Thromboplastin Time (aPTT) in pooled normal human plasma", "assay_type": "biochemical", "excerpt": "This Example describes the inhibitory activity of selected antibodies, as determined by four functional plasma assays: 1) Activated Partial Thromboplastin Time (aPTT), 2) Prothrombin Time (PT), 3) Thrombin Generation Assay (TGA) triggered by ellagic acid and 4) TGA triggered by Tissue Factor. The aPTT test evaluates all clotting factors of the Intrinsic and Common pathways of the coagulation cascade by measuring time for a clot to form after the addition of calcium and ellagic acid, whereas the PT test evaluates all clotting factors of the Extrinsic and Common pathways of the coagulation cascade after the addition of calcium and Tissue Factor. […]\n(§1) The aPTT was determined on Diagnostica Stago STart4 Hemostasis Analyzer in the following manner: A total of 50 ul of pooled normal human plasma was added to a cuvette at 37° C. […] The measured clot time for the test article concentration was normalized to baseline (no drug) plasma clot time and plotted against log molar concentration of the test article. The results were analyzed using nonlinear regression (4-parameter logistics) with Prism 5 software (GraphPad) to obtain doubling time concentration."}, "[2]": {"tested_on": "Extrinsic and Common pathways of the coagulation cascade", "experiment": "Prothrombin Time (PT) in pooled normal human plasma", "assay_type": "biochemical", "excerpt": "(§2) This Example describes the inhibitory activity of selected antibodies, as determined by four functional plasma assays: 1) Activated Partial Thromboplastin Time (aPTT), 2) Prothrombin Time (PT), 3) Thrombin Generation Assay (TGA) triggered by ellagic acid and 4) TGA triggered by Tissue Factor. The aPTT test evaluates all clotting factors of the Intrinsic and Common pathways of the coagulation cascade by measuring time for a clot to form after the addition of calcium and ellagic acid, whereas the PT test evaluates all clotting factors of the Extrinsic and Common pathways of the coagulation cascade after the addition of calcium and Tissue Factor. The TGA triggered by ellagic acid measures the rate and amount of thrombin generated via the Intrinsic and Common pathways whereas TGA triggered by Tissue Factor measures the rate and amount of thrombin generated via the Extrinsic and Common pathways.\nas §1, with “PT” for “aPTT”, “manner.” for “manner:”"}, "[3]": {"tested_on": "thrombin generated via the Intrinsic and Common pathways", "experiment": "Thrombin Generation Assay (TGA) triggered by ellagic acid", "assay_type": "biochemical, human", "conditions": "for Concentration required for ↑ lag time by 2× / Concentration required for ↓ endogenous thrombin potential by ½ / Concentration required for ↓ thrombin peak by ½: Intrinsic Pathway Activation with Ellagic Acid", "excerpt": "as §2\n(§3) The thrombin generation profile was determined in a Thermo Scientific Hemker Thrombinoscope in the following manner: A total of 55 ul of pooled normal human plasma was added to a well of a microplate at 37° C. Then 5 ul of a 2× serially diluted test article (antibody or small molecule inhibitor) in PBS was added to the well of the microplate and allowed to incubate for 30 min. 15 ul of APPT-XL Ellagic Acid (Thermo Scientific) was diluted in MP reagent then added to the well and allowed to incubate for 45 min. Then 15 ul of Fluo Flu Cal substrate (Diagnostica Stago) was added immediately before a continuous 90 min reading of the microplate. The measured real-time thrombin concentration values were plotted against time to yield a thrombogram profile for each concentration of the test article used."}, "[4]": {"tested_on": "thrombin generated via the Extrinsic and Common pathways", "experiment": "Thrombin Generation Assay (TGA) triggered by Tissue Factor", "assay_type": "biochemical, human", "excerpt": "as §2\nas §3, with “Tissue Factor PPP Reagent (Diagnostica Stago)” for “APPT-XL Ellagic Acid (Thermo Scientific)”, “was” for “was diluted in MP reagent then”"}, "[5]": {"conditions": "conc. of drug required to increase clotting time by 2-fold over baseline"}, "[6]": {"conditions": "dose response curves, pooled normal human plasma"}, "[7]": {"conditions": "Extrinsic Pathway Activation with Tissue Factor"}}}
{"compound": "COc1ccc(-n2nc(C(N)=O)c3c2C(=O)N(c2ccc(N4CCCCC4=O)cc2)CC3)cc1", "note": "[Apixaban, reference compound]", "values": [{"measurement": "C2xt of activated Partial Thromboplastin Time (aPTT) - Intrinsic Pathway", "setting": "[1]; [5]", "result": 7, "unit": "µM"}, {"measurement": "effect on plasma aPTT (in words)", "setting": "[1]; [6]", "result": "prolonged both aPTT and PT with uM concentrations"}, {"measurement": "C2xt of Prothrombin Time (PT) - Extrinsic Pathway", "setting": "[2]; [5]", "result": 3.5, "unit": "µM"}, {"measurement": "effect on plasma PT (in words)", "setting": "[2]; [6]", "result": "prolonged both aPTT and PT with uM concentrations"}, {"measurement": "Concentration required for ↑ lag time by 2×", "setting": "[3]", "result": "> 500", "unit": "nM"}, {"measurement": "Concentration required for ↓ endogenous thrombin potential by ½", "setting": "[3]", "result": "> 500", "unit": "nM"}, {"measurement": "Concentration required for ↓ thrombin peak by ½", "setting": "[3]", "result": "> 500", "unit": "nM"}, {"measurement": "Concentration required for ↑ lag time by 2×", "setting": "[3]; dash cells, dose up to 500 nM", "result": "— (no effect on thrombin generation with a dose up to 500 nM)"}, {"measurement": "Concentration required for ↓ endogenous thrombin potential by ½", "setting": "[3]; dash cells, dose up to 500 nM", "result": "— (no effect on thrombin generation with a dose up to 500 nM)"}, {"measurement": "Concentration required for ↓ thrombin peak by ½", "setting": "[3]; dash cells, dose up to 500 nM", "result": "— (no effect on thrombin generation with a dose up to 500 nM)"}, {"measurement": "effect on thrombin generation (in words)", "setting": "[3]; plasma triggered by ellagic acid", "result": "dose dependent reduction in thrombin generation"}, {"measurement": "Concentration required for ↑ lag time by 2×", "setting": "[4]; [7]", "result": 250, "unit": "nM"}, {"measurement": "Concentration required for ↓ endogenous thrombin potential by ½", "setting": "[4]; [7]", "result": 250, "unit": "nM"}, {"measurement": "Concentration required for ↓ thrombin peak by ½", "setting": "[4]; [7]", "result": 62.5, "unit": "nM"}, {"measurement": "effect on thrombin generation (in words)", "setting": "[4]; plasma triggered by Tissue Factor", "result": "dose dependently inhibited thrombin generation"}]}
